Experimental data from paper PMC7600788, “Sequence Permutation Generates Peptides with Different Antimicrobial and Antibiofilm Activities” (Pharmaceuticals, 2020).
No end group written: not given here.

Experiments:
[1] = HPLC retention time measurement (reverse-phase C18); assay type: physicochemical
Protocol: The retention time of the peptide was measured on a Waters HPLC system equipped with an analytical reverse-phase WATERS C18 column (4.6 × 250 mm). The peptide detected at 220 and 280 nm was eluted with a gradient of acetonitrile (containing 1% TFA) from 5% to 95% at a flow rate of 1 mL/min [22].

S. aureus Mu50 = assay type: cell-based, Staphylococcus aureus; settings: Mu50
Protocol: The antimicrobial activity spectrum of the WW peptide series was performed on a panel of Gram-positive and -negative bacteria using the standard broth micro-dilution method with minor modifications as described. […] There was a small change in the case of Pseudomonas aeruginosa and Acinetobacter baumannii up to two-fold. Four-fold changes were found for Staphylococcus aureus, Staphylococcus epidermidis, Escherichia coli, and Bacillus subtilis. However, we observed over eight-fold MIC changes for Klebsiella pneumoniae and vancomycin-resistant enterococcus (VRE). […] We also observed more than eight-fold changes in minimal bacterial killing concentrations.
(§1) The antibacterial activity of peptides was evaluated using a standard broth microdilution protocol with minor modifications as previously described. In brief, logarithmic phase bacterial cultures (i.e., optical density at 600 nm ≈ 0.5) were diluted to OD600~0.001 and partitioned into a 96-well polystyrene microplate at 90 μL per well. After treatment with 10 μL of peptide solutions two-fold diluted to various concentrations, microplates were incubated at 37 °C overnight and read on a ChroMate 4300 Microplate Reader at 630 nm (GMI, Ramsey, MN). […] Minimal bactericidal concentration (MBC) was determined by plating the clear wells at MIC or above. The peptide concentration that caused no bacterial growth on the petri dish is MBC.

S. aureus USA300 = assay type: cell-based, Staphylococcus aureus; settings: USA300
Protocol: as §1

E. coli ML35p = experiment: Simultaneous outer and inner membrane permeation (nitrocefin / ONPG); assay type: cell-based, Escherichia coli; settings: 3.1 µM
From the text: To confirm the mechanism of action, we also performed membrane permeation using a reporter strain of E. coli ML35p. This strain enabled simultaneous monitoring of membrane permeation of both the inner and outer membranes of Gram-negative bacterium E. coli. Both WW295 and WW298 were included in the experiment. […] This is indicated by the sharp development of absorbance at 490 nm for nitrocefin (panel A) and at 420 nm for ONPG (panel B).
The E. coli ML-35p strain was utilized to probe the permeation of both the outer membrane (OM) and inner membrane (IM). This strain was engineered to have two membrane reporters. Nitrocefin is used for detection of OM permeabilization. Nitrocefin is excluded from the periplasm. […] The chromogenic cleavage product was spectrophotometrically monitored at 490 nm. […] However, permeabilization of the IM helps ONPG to enter cytoplasm and get cleaved by cytoplasmic β-galactosidase into o-nitrophenol, which can be detected spectrophotometrically at 420 nm. […] Absorbances at both 490 and at 420 nm were monitored using FLUOstar Omega (BMG, Labtech, NC, USA) simultaneously. After shaking at 100 rpm, readings were taken every 2 min for a total of 40 min at 37 °C. Data were analyzed using the MARS data analysis software provided by the manufacturer and representative plots were made using the GraphPad Prism 7 software.

Q: For RKIWWWWL [WW295], which “hydrophobicity implied by retention time (in words)” value ([1]; reverse-phase HPLC C18) is on record?
A: Its value is “slightly higher hydrophobicity”.

Q: And the “HPLC (tr, min)” value ([1]; reverse-phase Waters C18 4.6 × 250 mm, acetonitrile (1% TFA) gradient 5% to 95%, 1 mL/min, detection 220 and 280 nm, taken as measure of hydrophobicity)?
A: Its value is 12.453 min.

Q: What about the “Minimal Inhibitory Concentration (MIC), SA” value (S. aureus Mu50) of the same sequence?
A: Its value is 12.5 µM.

Q: And the “MBC, USA300” value (S. aureus USA300)?
A: The value was 12.5 µM.

Q: And the “outer and inner membrane permeation (nitrocefin 490 nm, ONPG 420 nm)” value (E. coli ML35p)?
A: Its value is “entered both outer and inner membranes”.
